Reference: patent US20240116951A1, “HETEROCYCLIC COMPOUNDS AND USES THEREOF” (Kumquat Biosciences Inc., priority 2022, published 2024)

What was measured:
Assay type in all cases: binding
KRAS G12S = biological target: T1, KRAS G12S (Homo sapiens, UniProt P01116, G12S); assay: HTRF assay of K-Ras G12S interaction with SOS1 (PPI-HTRF); settings: 5 nM KRAS G12S, read-out: PPI-HTRF-5 nM KRAS G12S
T1 construct: made in house; host or cells: E. coli, e.g. BL21 (DE3)
Summary of the method: (§1)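 GST-KRas + antiGST-Eu(K); His-hSOS1 + anti-6His-XL665. Buffer ~5 mM HEPES pH 7.4/150 mM NaCl/1 mM DTT/0.05% BSA/0.0025% Igepal. Cpd in DMSO, duplicates 10–0.01 μM; ≥10 min incubation, HTRF 620/665 nm, IC50 from ratio.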

KRAS G12D = biological target: T2, KRAS G12D (Homo sapiens, UniProt P01116, G12D); assay: HTRF assay of K-Ras G12D interaction with SOS1 (PPI-HTRF); settings: HTRF, 5 nM KRAS G12D; read-out: PPI-HTRF-5 nM KRAS G12D
T2 construct: made in house; host or cells: E. coli, e.g. BL21 (DE3)
Summary of the method: as §1

KRAS WT = biological target: T3, KRAS WT (Homo sapiens, UniProt P01116); assay: HTRF assay of wildtype K-Ras interaction with SOS1 (PPI-HTRF); settings: HTRF, 5 nM KRAS WT; read-out: PPI-HTRF-5 nM KRAS WT
T3 construct: made in house; host or cells: E. coli, e.g. BL21 (DE3)
Summary of the method: as §1

T3 sequence (P01116 1-188 isoform P01116-2): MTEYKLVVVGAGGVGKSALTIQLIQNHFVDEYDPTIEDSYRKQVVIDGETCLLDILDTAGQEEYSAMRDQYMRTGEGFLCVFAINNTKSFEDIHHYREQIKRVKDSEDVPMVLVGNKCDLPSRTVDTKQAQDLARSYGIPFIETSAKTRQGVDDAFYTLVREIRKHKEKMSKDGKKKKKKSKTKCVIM
T1 sequence (P01116 1-188 isoform P01116-2 G12S): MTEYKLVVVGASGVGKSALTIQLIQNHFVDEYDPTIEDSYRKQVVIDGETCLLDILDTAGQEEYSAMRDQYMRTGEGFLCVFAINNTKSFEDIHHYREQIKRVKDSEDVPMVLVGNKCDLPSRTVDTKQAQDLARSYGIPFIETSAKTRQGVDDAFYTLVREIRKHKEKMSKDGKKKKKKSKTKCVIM
T2 sequence (P01116 1-188 isoform P01116-2 G12D): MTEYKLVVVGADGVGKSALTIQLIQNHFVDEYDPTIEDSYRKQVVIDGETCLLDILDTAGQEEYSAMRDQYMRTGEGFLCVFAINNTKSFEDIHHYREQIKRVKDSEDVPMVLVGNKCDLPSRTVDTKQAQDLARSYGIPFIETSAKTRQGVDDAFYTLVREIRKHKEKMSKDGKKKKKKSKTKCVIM

| SMILES | IC50 (KRAS G12S) [µM] | IC50 (KRAS G12D) [µM] | IC50 (KRAS WT) [µM] |
| --- | --- | --- | --- |
| C[C@@H]1C[C@@]2(CCN2)CN1c1nc(OC[C@@]23CCCN2C[C@H](F)C3)nc2c(F)c(-c3ccc(F)c4sc(N)c(C#N)c34)c(Cl)cc12 [Compound 335, 2-amino-4-(6-chloro-8-fluoro-2-(((2R,7aS)-2-fluorotetrahydro-1H-pyrrolizin-7a(5H)-yl)methoxy)-4-((4S,7R)-7-methyl-1,6-diazaspiro[3.4]octan-6-yl)quinazolin-7-yl)-7-fluorobenzo[b]thiophene-3-carbonitrile] | < 5 | < 5 | < 5 |
| N#Cc1c(N)sc2c(F)ccc(-c3c(F)c4nc(OC[C@@]56CCCN5C[C@H](F)C6)nc(N5CCC6(CCN6)C5)c4c(=O)n3C3CC3)c12 (stereo partly drawn) [Compound 333, 2-amino-4-(6-cyclopropyl-8-fluoro-2-(((2R,7aS)-2-fluorotetrahydro-1H-pyrrolizin-7a(5H)-yl)methoxy)-5-oxo-4-(1,6-diazaspiro[3.4]octan-6-yl)-5,6-dihydropyrido[4,3-d]pyrimidin-7-yl)-7-fluorobenzo[b]thiophene-3-carbonitrile] | < 5 | < 5 | < 5 |
| Cc1cn(C(=O)N2CCC23CCN(c2nc(OC[C@@]45CCCN4C[C@H](F)C5)nc4c(F)c(-c5ccc(F)c6sc(N)c(C#N)c56)c(Cl)cc24)C3)nn1 (stereo partly drawn) [Compound 336, 2-amino-4-(6-chloro-8-fluoro-2-(((2R,7aS)-2-fluorotetrahydro-1H-pyrrolizin-7a(5H)-yl)methoxy)-4-(1-(4-methyl-1H-1,2,3-triazole-1-carbonyl)-1,6-diazaspiro[3.4]octan-6-yl)quinazolin-7-yl)-7-fluorobenzo[b]thiophene-3-carbonitrile] | < 5 | < 5 | < 5 |
| N#Cc1c(N)sc2c(F)ccc(-c3c(Cl)cc4c(N5CCC6(CCN6)C5)nc(OC[C@@]56CCCN5C[C@H](F)C6)nc4c3F)c12 (stereo partly drawn) [Compound 212, 2-amino-4-(6-chloro-8-fluoro-2-(((2R,7aS)-2-fluorotetrahydro-1H-pyrrolizin-7a(5H)-yl)methoxy)-4-(1,6-diazaspiro[3.4]octan-6-yl)quinazolin-7-yl)-7-fluorobenzo[b]thiophene-3-carbonitrile] | < 5 | < 5 | < 5 |
| Nc1nc2c(-c3c(Cl)cc4c(N5CCC6(CCN6)CC5)nc(OC[C@@]56CCCN5C[C@H](F)C6)nc4c3F)ccc(F)c2s1 [Compound 265, 4-(6-chloro-8-fluoro-2-(((2R,7aS)-2-fluorotetrahydro-1H-pyrrolizin-7a(5H)-yl)methoxy)-4-(1,7-diazaspiro[3.5]nonan-7-yl)quinazolin-7-yl)-7-fluorobenzo[d]thiazol-2-amine] | > 5 | < 5 | < 5 |
| Nc1nc2c(-c3c(Cl)cc4c(N5CC6(CCN6C(=O)n6cncn6)C5)nc(OC[C@@]56CCCN5C[C@H](F)C6)nc4c3F)ccc(F)c2s1 [Compound 273, (6-(7-(2-amino-7-fluorobenzo[d]thiazol-4-yl)-6-chloro-8-fluoro-2-(((2R,7aS)-2-fluorotetrahydro-1H-pyrrolizin-7a(5H)-yl)methoxy)quinazolin-4-yl)-1,6-diazaspiro[3.3]heptan-1-yl)(1H-1,2,4-triazol-1-yl)methanone] | < 5 | < 5 | < 5 |

Now from value to compound:

| IC50 (KRAS G12S) [µM] | IC50 (KRAS G12D) [µM] | IC50 (KRAS WT) [µM] | SMILES |
| --- | --- | --- | --- |
| < 5 | < 5 | < 5 | N#Cc1c(N)sc2c(F)ccc(-c3c(Cl)cc4c(N5CC[C@]6(CCN6)C5)nc(OC[C@@]56CCCN5C[C@H](F)C6)nc4c3F)c12 [Compound 285, 2-amino-4-(6-chloro-8-fluoro-2-(((2R,7aS)-2-fluorotetrahydro-1H-pyrrolizin-7a(5H)-yl)methoxy)-4-((R)-1,6-diazaspiro[3.4]octan-6-yl)quinazolin-7-yl)-7-fluorobenzo[b]thiophene-3-carbonitrile] |
| < 5 | < 5 | < 5 | N#Cc1c(N)sc2c(F)ccc(-c3c(Cl)cc4c(N5CCCCC6(CCCN6C(=O)n6cncn6)C5)nc(OC[C@@]56CCCN5C[C@H](F)C6)nc4c3F)c12 (mixture of isomers) [Compound 349, 4-(4-(1-(1H-1,2,4-triazole-1-carbonyl)-1,7-diazaspiro[4.6]undecan-7-yl)-6-chloro-8-fluoro-2-(((2R,7aS)-2-fluorotetrahydro-1H-pyrrolizin-7a(5H)-yl)methoxy)quinazolin-7-yl)-2-amino-7-fluorobenzo[b]thiophene-3-carbonitrile] |
| < 5 | < 5 | < 5 | COCc1ncn(C(=O)N2CCC23CCN(c2nc(OC[C@@]45CCCN4C[C@H](F)C5)nc4c(F)c(-c5ccc(F)c6sc(N)c(C#N)c56)c(Cl)cc24)C3)n1 (stereo partly drawn) [Compound 313, 2-amino-4-(6-chloro-8-fluoro-2-(((2R,7aS)-2-fluorotetrahydro-1H-pyrrolizin-7a(5H)-yl)methoxy)-4-(1-(3-(methoxymethyl)-1H-1,2,4-triazole-1-carbonyl)-1,6-diazaspiro[3.4]octan-6-yl)quinazolin-7-yl)-7-fluorobenzo[b]thiophene-3-carbonitrile] |
| < 5 | > 5 | < 5 | N#Cc1c(N)sc2c(F)ccc(-c3c(Cl)cc4c(N5CCC6(CCN6C(=O)OC(C(F)(F)F)C(F)(F)F)C5)nc(OC[C@@]56CCCN5C[C@H](F)C6)nc4c3F)c12 (stereo partly drawn) [Compound 237, 1,1,1,3,3,3-hexafluoropropan-2-yl 6-(7-(2-amino-3-cyano-7-fluorobenzo[b]thiophen-4-yl)-6-chloro-8-fluoro-2-(((2R,7aS)-2-fluorotetrahydro-1H-pyrrolizin-7a(5H)-yl)methoxy)quinazolin-4-yl)-1,6-diazaspiro[3.4]octane-1-carboxylate] |
| < 5 | < 5 | < 5 | N#Cc1c(N)sc2c(F)ccc(-c3c(Cl)cc4c(N5CCC6(CCN6C(=O)C(F)Cl)C5)nc(OC[C@@]56CCCN5C[C@H](F)C6)nc4c3F)c12 (stereo partly drawn) [Compound 244, 2-amino-4-(6-chloro-4-(1-(2-chloro-2-fluoroacetyl)-1,6-diazaspiro[3.4]octan-6-yl)-8-fluoro-2-(((2R,7aS)-2-fluorotetrahydro-1H-pyrrolizin-7a(5H)-yl)methoxy)quinazolin-7-yl)-7-fluorobenzo[b]thiophene-3-carbonitrile] |
| < 5 | < 5 | < 5 | C[C@H](Oc1nc(N2CCC3(CCN3)C2)c2cc(Cl)c(-c3ccc(F)c4sc(N)c(C#N)c34)c(F)c2n1)[C@@H]1CCCN1C (stereo partly drawn) [Compound 213, 2-amino-4-(6-chloro-8-fluoro-2-((S)-1-((S)-1-methylpyrrolidin-2-yl)ethoxy)-4-(1,6-diazaspiro[3.4]octan-6-yl)quinazolin-7-yl)-7-fluorobenzo[b]thiophene-3-carbonitrile] |
| < 5 | < 5 | < 5 | Nc1nc2c(-c3ccc4c(N5CCC6(CCN6)CC5)nc(OC[C@@]56CCCN5C[C@H](F)C6)nc4c3F)ccc(F)c2s1 [Compound 204, 7-fluoro-4-(8-fluoro-2-(((2R,7aS)-2-fluorotetrahydro-1H-pyrrolizin-7a(5H)-yl)methoxy)-4-(1,7-diazaspiro[3.5]nonan-7-yl)quinazolin-7-yl)benzo[d]thiazol-2-amine] |
